Data: patent US9907797B2, “Combination therapies for overcoming resistance to mitotic agents during chemotherapy” (EMORY UNIVERSITY, priority 2014, dated 2018)

Tests used:
[1] = target: T1, CHFR (Homo sapiens, UniProt Q96EP1); assay: Nuclear localization of CHFR (staining) in A549 cells with MG-132; assay type: cell-based; design: endogenous in cells; host or cells: A549; details: A3 in combination with MG-132, A549 cells
T1 sequence (Q96EP1 1-664): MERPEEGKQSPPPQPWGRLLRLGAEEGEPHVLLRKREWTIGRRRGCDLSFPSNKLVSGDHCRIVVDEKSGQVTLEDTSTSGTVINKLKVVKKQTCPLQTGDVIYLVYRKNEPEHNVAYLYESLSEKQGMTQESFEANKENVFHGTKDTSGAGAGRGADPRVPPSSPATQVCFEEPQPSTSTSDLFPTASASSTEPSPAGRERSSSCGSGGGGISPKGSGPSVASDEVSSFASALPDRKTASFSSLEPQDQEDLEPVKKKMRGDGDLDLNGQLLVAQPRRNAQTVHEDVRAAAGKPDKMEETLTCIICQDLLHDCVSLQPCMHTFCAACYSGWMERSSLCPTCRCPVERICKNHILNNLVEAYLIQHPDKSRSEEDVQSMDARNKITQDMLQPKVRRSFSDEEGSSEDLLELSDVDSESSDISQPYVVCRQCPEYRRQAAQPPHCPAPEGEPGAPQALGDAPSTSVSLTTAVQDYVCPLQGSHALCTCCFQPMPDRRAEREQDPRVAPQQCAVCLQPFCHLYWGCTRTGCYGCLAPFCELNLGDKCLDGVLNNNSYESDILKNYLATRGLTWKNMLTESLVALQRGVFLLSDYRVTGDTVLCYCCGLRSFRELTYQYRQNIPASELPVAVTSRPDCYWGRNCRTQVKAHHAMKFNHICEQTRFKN
Procedure: (§1) HEK293 cells were stably transfected with the pDEST27-AR-CHFR construct. Deletion of the RING domain in this construct leads to both stable CHFR and PARP1 expression that is unaltered by treatment with increasing concentrations of ‘A3’ for 16 hours. Nonetheless, the interaction between glutathione-affinity purified CHFR-ΔR and PARP1 was decreased by ‘A3’ in a dose dependent fashion. A549 cells were incubated for 16.5 hrs with MG132 and indicated A3 concentration for 16 hrs. At 10 uM A3 concentration CHFR staining is diminished in the nucleus Cells are stained with CHFR.
(§2) In an attempt to generate possible lead compounds for the pharmacologic inhibition of the CHFR-PARP1 interaction, a high throughput computational screen of 5,256,508 chemical structures in the MCULE database of purchasable compounds using the AutoDockVina algorithm against the published crystal structure of the CHFR-PBZ domain was performed. The 10 most promising ‘hits’ based on Autodock Vina docking scores (<−9.7) were selected for further characterization. Commercially available compounds were tested for their impact on nuclear CHFR levels (FIG. 3A). […] The impact of the above referenced compounds on the PARP1/CHFR interaction were evaluated. HEK293 cells were transfected with GST tagged PARP1 and the interaction with CHFR determined in pull down assays for those 4 compounds. […]

[2] = tested on: A549 cells; assay: Cell cycle analysis by flow-cytometry, antephase checkpoint; assay type: cell-based; details: unsynchronized A549 cells, 12 hours, docetaxel 50 nM with A3 10 uM
Excerpt: Cell cycle arrest at G2/M in response to microtubular damage is a hallmark of a functional antephase checkpoint.

[3] = tested on: CHFR expressing cell lines; assay: Colony formation assays on a panel of cell lines of different cancer types; assay type: cell-based
Procedure: Various cell lines of different tissues of origin and with different CHFR expression status were exposed to 1 hour of docetaxel and 72 hours of ‘A3’. Effects were defined as 1−colony count (treatment)/colony count (control). The nature of the interaction between the two compounds was analyzed by the Bliss additivity method. […] For subsequent colony formation assays, cell lines were characterized into CHFR expressing vs. CHFR deficient cell lines by Western-Blot.
Finally, colony formation assays were performed on a panel of cell lines of different cancer types such as lung-, breast-, and colon cancer.

[4] = target: T1, CHFR; assay: CHFR levels by western blotting of whole cell extracts; assay type: cell-based; design: endogenous in cells; host or cells: A549; details: 10 uM, 24 hours, A549 cells
Procedure: The 10 compounds with the highest docking scores were tested for their ability to regulate CHFR expression levels.
In an attempt to generate possible lead compounds for the pharmacologic inhibition of the CHFR-PARP1 interaction, a high throughput computational screen of 5,256,508 chemical structures in the MCULE database of purchasable compounds using the AutoDockVina algorithm against the published crystal structure of the CHFR-PBZ domain was performed. The 10 most promising ‘hits’ based on Autodock Vina docking scores (<−9.7) were selected for further characterization. Commercially available compounds were tested for their impact on nuclear CHFR levels (FIG. 3A). Several compounds, including ‘A2’, ‘A3’, ‘A4’ and ‘A6’ decreased CHFR levels assayed by western blotting of whole cell extracts. The impact of the above referenced compounds on the PARP1/CHFR interaction were evaluated. HEK293 cells were transfected with GST tagged PARP1 and the interaction with CHFR determined in pull down assays for those 4 compounds. […] In contrast to treatment with ABT-888, ‘A3’ completely disrupted the interaction between GST-tagged PARP-1 and CHFR (FIG. 3B). […]

[5] = Pharmacokinetics, plasma concentrations by LC/MS/MS; assay type: in vivo; details: CD1 mice
Procedure: The in vivo properties of ‘A3’ were evaluated. The pharmacokinetics of ‘A3’ after a single oral (25 mg/kg) and intravenous (10 mg/kg) dose of in CD1 mice were determined. Plasma was obtained at pre-specified time points (15 min to 24 hours) and ‘A3’ concentrations were determined by LC/MS/MS. […] Oral bioavailability of ‘A3’ was insignificant. The time-point of maximal CHFR suppression at 4 hrs follow the peak in A3 plasma levels with some delay.

[6] = target: T1, CHFR; assay: CHFR protein levels in A549 nuclear extracts; assay type: cell-based; design: endogenous in cells; host or cells: A549
Procedure: as §1, §2

Compound: Cc1ccc(N2C(=O)NC(=O)C(=Cc3cn(Cc4ccccc4)c4ccccc34)C2=O)cc1C [A3, 5-((1-benzyl-1H-indol-3-yl)methylene)-1-(3,4-dimethylphenyl)pyrimidine-2,4,6(1H,3H,5H)-trione]
- nuclear localization of CHFR [1]: depletion of nuclear CHFR and accumulation of cytoplasmic CHFR
- docetaxel induced cell cycle arrest [2]: prevented docetaxel induced cell cycle arrest
- synergy between A3 and docetaxel, colony formation (Bliss additivity) ([3]; CHFR expressing cell line H460): strong synergy
- synergy between A3 and docetaxel, colony formation (Bliss additivity) ([3]; CHFR expressing cell lines other than EKVX, 1 hour docetaxel, 72 hours A3): synergy between ‘A3’ and docetaxel was observed for all other CHFR expressing cell lines
- CHFR expression [4]: reduced CHFR expression
- distribution ([5]; following intravenous dosing 10 mg/kg): rapidly and widely distributed
- relative bioavailability from dose normalized AUC values ([5]; single oral (25 mg/kg) and intravenous (10 mg/kg) dose): 19.5%
- Oral bioavailability ([5]; single oral dose 25 mg/kg): insignificant
- CHFR protein levels ([6]; 10 uM, 16 hrs, A549): complete disappearance of CHFR
- CHFR protein levels ([6]; low concentrations of A3): initial increase in CHFR protein levels
